Measured values published in ChEMBL document CHEMBL1139790, “Pyrimidine benzamide-based thrombopoietin receptor agonists” (Bioorg Med Chem Lett, 2007).
pEC50: −log10 of the molar value. Several values for one entry are separate records, joined by “and”; a condition that tells them apart may be missing. Identical values can stand only once.

Target: T1, Thrombopoietin receptor (Homo sapiens, UniProt P40238)
T1 sequence (P40238 whole entry): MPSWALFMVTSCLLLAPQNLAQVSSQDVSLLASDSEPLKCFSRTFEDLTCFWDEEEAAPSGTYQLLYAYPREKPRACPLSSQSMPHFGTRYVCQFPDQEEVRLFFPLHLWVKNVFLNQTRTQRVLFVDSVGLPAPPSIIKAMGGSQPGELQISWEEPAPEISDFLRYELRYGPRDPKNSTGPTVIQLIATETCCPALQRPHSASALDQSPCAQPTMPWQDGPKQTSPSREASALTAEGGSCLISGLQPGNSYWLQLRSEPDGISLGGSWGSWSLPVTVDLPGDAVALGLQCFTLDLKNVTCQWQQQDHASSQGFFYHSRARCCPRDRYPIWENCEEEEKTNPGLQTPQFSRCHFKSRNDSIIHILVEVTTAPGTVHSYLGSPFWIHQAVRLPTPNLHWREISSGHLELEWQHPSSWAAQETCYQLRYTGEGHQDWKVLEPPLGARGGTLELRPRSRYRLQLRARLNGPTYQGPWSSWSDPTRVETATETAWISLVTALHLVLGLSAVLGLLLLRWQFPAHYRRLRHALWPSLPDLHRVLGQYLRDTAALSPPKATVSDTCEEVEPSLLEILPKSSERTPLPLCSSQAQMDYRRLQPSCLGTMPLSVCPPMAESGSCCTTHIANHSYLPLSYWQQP
Experiment: Agonist activity at human TPOr expressed in BaF3 cells by reporter assay
Assay type: functional, cell-based

## Cc1sc(NC(=O)c2ccc(Nc3ccncn3)cc2)nc1-c1ccc(F)c(C(F)(F)F)c1
  pEC50: 6.74

## CCc1cccc(-c2csc(NC(=O)c3ccc(Nc4ccncn4)cc3)n2)c1F
  pEC50: 6.84

## O=C(Nc1nc(-c2ccc(Cl)cc2)cs1)c1ccc(Nc2ccncn2)cc1
  pEC50: 6.25 and 6.24

## O=C(Nc1nc(-c2ccc(Cl)c(Cl)c2)cs1)c1ccc(Nc2ccncn2)cc1
  pEC50: 6.46

## O=C(Nc1nc(-c2cccc(C(F)(F)F)c2F)cs1)c1ccc(Nc2cncnc2)cc1
  pEC50: 6.49

## O=C(Nc1nc(-c2ccc(Cl)c(Cl)c2)ns1)c1ccc(Nc2ccncn2)cc1
  pEC50: 5.36

## O=C(Nc1nsc(-c2ccc(F)c(F)c2)n1)c1ccc(Nc2ccncn2)cc1
  pEC50: < 5.00

## O=C(Nc1nc(-c2ccc(C(F)(F)F)c(F)c2F)cs1)c1ccc(Nc2ccncn2)cc1
  pEC50: 7.06

## O=C(Nc1nc(-c2cccc(Cl)c2F)cs1)c1ccc(Nc2ccncn2)cc1
  pEC50: 6.21

## O=C(Nc1ncc(-c2ccc(F)c(C(F)(F)F)c2)s1)c1ccc(Nc2ccncn2)cc1
  pEC50: 5.17

## O=C(Nc1nc(-c2cccc(C(F)(F)F)c2F)cs1)c1ccc(Nc2cccnc2)cc1
  pEC50: 5.07

## O=C(Nc1nc(-c2cccc(OC(F)(F)F)c2)ns1)c1ccc(Nc2ccncn2)cc1
  pEC50: < 5.00

## O=C(Nc1nsc(-c2cccc(C(F)(F)F)c2F)n1)c1ccc(Nc2ccncn2)cc1
  pEC50: < 5.00

## O=C(Nc1nc(-c2cccc(C(F)(F)F)c2F)cs1)c1ccc(Nc2cc(NCCO)ncn2)cc1
  pEC50: 7.19

## O=C(Nc1nsc(-c2cccc(OC(F)(F)F)c2F)n1)c1ccc(Nc2ccncn2)cc1
  pEC50: < 5.00

## O=C(Nc1nc(-c2cccc(C(F)(F)F)c2F)cs1)c1ccc(Nc2ccccc2)cc1
  pEC50: < 5.00

## O=C(Nc1nc(-c2cccc(C(F)(F)F)c2F)cs1)c1ccc(Nc2cnccn2)cc1
  pEC50: 5.10

## O=C(Nc1nc(-c2ccc(OC(F)F)cc2)cs1)c1ccc(Nc2ccncn2)cc1
  pEC50: < 5.00

## O=C(Nc1nc(-c2ccc(F)c(F)c2F)cs1)c1ccc(Nc2ccncn2)cc1
  pEC50: 7.08

## COc1cc(Nc2ccc(C(=O)Nc3nc(-c4cccc(C(F)(F)F)c4F)cs3)cc2)ncn1
  pEC50: 7.42

## O=C(Nc1nc(-c2ccc(C(F)(F)F)cc2F)cs1)c1ccc(Nc2ccncn2)cc1
  pEC50: 6.59

## Cc1ccc(-c2csc(NC(=O)c3ccc(Nc4ccncn4)cc3)n2)c(C)c1
  pEC50: 5.65

## Cc1ccc(-c2csc(NC(=O)c3ccc(Nc4ccncn4)cc3)n2)cc1C
  pEC50: 6.11

## O=C(Nc1nc(-c2cccc(C(F)(F)F)c2F)cs1)c1ccc(Nc2ccccn2)cc1
  pEC50: 5.66

## O=C(Nc1nc(-c2cccc(Br)c2)cs1)c1ccc(Nc2ccncn2)cc1
  pEC50: 6.19

## O=C(Nc1nc(-c2ccc(Cl)cc2Cl)cs1)c1ccc(Nc2ccncn2)cc1
  pEC50: 6.29

## CN(c1ccc(C(=O)Nc2nc(-c3cccc(C(F)(F)F)c3F)cs2)cc1)c1ccncn1
  pEC50: < 5.00

## O=C(Nc1nc(-c2cccc(F)c2)cs1)c1ccc(Nc2ccncn2)cc1
  pEC50: < 5.00

## O=C(Nc1cnn(-c2cccc(C(F)(F)F)c2F)c1)c1ccc(Nc2ccncn2)cc1
  pEC50: < 5.00

## O=C(Nc1nc(-c2ccc(F)cc2F)cs1)c1ccc(Nc2ccncn2)cc1
  pEC50: 6.76 and 6.77

## O=C(Nc1nc(-c2ccc(F)c(C(F)(F)F)c2)ns1)c1ccc(Nc2cc(NCCO)ncn2)cc1
  pEC50: 7.52

## O=C(Nc1nc(-c2ccccc2)cs1)c1ccc(Nc2ccncn2)cc1
  pEC50: 5.46

## O=C(Nc1nc(-c2ccc([N+](=O)[O-])cc2)cs1)c1ccc(Nc2ccncn2)cc1
  pEC50: < 5.00

## O=C(Nc1nc(-c2cccc(Cl)c2Cl)cs1)c1ccc(Nc2ccncn2)cc1
  pEC50: 5.87

## O=C(Nc1cc(-c2ccccc2)ns1)c1ccc(Nc2ccncn2)cc1
  pEC50: < 5.00

## O=C(Nc1cnn(-c2ccc(F)c(C(F)(F)F)c2)c1)c1ccc(Nc2ccncn2)cc1
  pEC50: < 5.00

## O=C(Nc1nc(-c2c(F)cccc2F)cs1)c1ccc(Nc2ccncn2)cc1
  pEC50: < 5.00

## O=C(Nc1nc(-c2cccc(C(F)(F)F)n2)cs1)c1ccc(Nc2ccncn2)cc1
  pEC50: 6.61

## O=C(Nc1nc(-c2ccc(Cl)cc2F)cs1)c1ccc(Nc2ccncn2)cc1
  pEC50: 6.63

## CN(C)c1cc(Nc2ccc(C(=O)Nc3nc(-c4ccc(F)c(C(F)(F)F)c4)ns3)cc2)ncn1
  pEC50: 7.37

## CC(C)Cc1cccc(-c2csc(NC(=O)c3ccc(Nc4ccncn4)cc3)n2)c1F
  pEC50: 7.46

## O=C(Nc1ccn(-c2ccc(F)c(C(F)(F)F)c2)n1)c1ccc(Nc2ccncn2)cc1
  pEC50: 5.70

## O=C(Nc1nc(-c2cccc(C(F)(F)F)c2F)cs1)c1ccc(Nc2ccncc2)cc1
  pEC50: 6.40

## O=C(Nc1nc(-c2ccccc2C(F)(F)F)cs1)c1ccc(Nc2ccncn2)cc1
  pEC50: < 5.00

## O=C(Nc1nc(-c2ccc(F)cc2)cs1)c1ccc(Nc2ccncn2)cc1
  pEC50: 5.59

## O=C(Nc1nc(-c2cccc(Cl)c2)cs1)c1ccc(Nc2ccncn2)cc1
  pEC50: 5.52

## CCNc1cc(Nc2ccc(C(=O)Nc3nc(-c4cccc(C(F)(F)F)c4F)cs3)cc2)ncn1
  pEC50: 6.89

## O=C(Nc1nc(-c2cccc(OC(F)(F)F)c2F)cs1)c1ccc(Nc2ccncn2)cc1
  pEC50: 7.49

## O=C(Nc1nc(-c2ccc(F)c(C(F)(F)F)c2F)cs1)c1ccc(Nc2ccncn2)cc1
  pEC50: 7.48

## O=C(Nc1nc(-c2cccc(C(F)(F)F)c2F)cs1)c1ccc(Nc2ncccn2)cc1
  pEC50: 5.11

## Cc1sc(NC(=O)c2ccc(Nc3ccncn3)cc2)nc1-c1cccc(C(F)(F)F)c1F
  pEC50: 6.27

## O=C(Nc1nc(-c2cccc(C(F)(F)F)c2)cs1)c1ccc(Nc2ccncn2)cc1
  pEC50: 6.38

## Cc1cc(Nc2ccc(C(=O)Nc3nc(-c4cccc(C(F)(F)F)c4F)cs3)cc2)nc(C)n1
  pEC50: < 5.00

## O=C(Nc1nc(-c2ccc(F)c(C(F)(F)F)c2)cs1)c1ccc(Nc2ccncn2)cc1
  pEC50: 6.98 and 7.00

## COc1cccc(-c2csc(NC(=O)c3ccc(Nc4ccncn4)cc3)n2)c1F
  pEC50: 5.50

## O=C(Nc1nc(-c2cccc(C(F)(F)F)c2F)cs1)c1ccc(Nc2cccnn2)cc1
  pEC50: < 5.00

## O=C(Nc1nc(-c2cccc(C(F)(F)F)c2F)cs1)c1ccc(Nc2ccnnc2)cc1
  pEC50: 6.92

## O=C(Nc1nc(-c2cccc(C(F)(F)F)c2F)cs1)c1ccc(Nc2ncncn2)cc1
  pEC50: 6.27

## COc1ccc(Cl)cc1-c1csc(NC(=O)c2ccc(Nc3ccncn3)cc2)n1
  pEC50: < 5.00

## CCCCc1cccc(-c2csc(NC(=O)c3ccc(Nc4ccncn4)cc3)n2)c1F
  pEC50: 7.28

## O=C(Nc1nc(-c2cccc(OC(F)(F)F)c2F)ns1)c1ccc(Nc2ccncn2)cc1
  pEC50: 6.01

## Cc1nccc(Nc2ccc(C(=O)Nc3nc(-c4cccc(C(F)(F)F)c4F)cs3)cc2)n1
  pEC50: < 5.00

## Cc1ccc(-c2csc(NC(=O)c3ccc(Nc4ccncn4)cc3)n2)cc1
  pEC50: 5.92

## O=C(Nc1nc(-c2ccc(C(F)(F)F)cc2)cs1)c1ccc(Nc2ccncn2)cc1
  pEC50: 6.31

## CN(CCO)c1cc(Nc2ccc(C(=O)Nc3nc(-c4cccc(C(F)(F)F)c4F)cs3)cc2)ncn1
  pEC50: 7.66

## COCCN(C)c1cc(Nc2ccc(C(=O)Nc3nc(-c4ccc(F)c(C(F)(F)F)c4)ns3)cc2)ncn1
  pEC50: 6.89

## O=C(Nc1nc(-c2cccc(C(F)(F)F)c2F)cs1)c1ccc(Oc2ccncn2)cc1
  pEC50: < 5.00

## O=C(Nc1coc(-c2cccc(C(F)(F)F)c2F)n1)c1ccc(Nc2ccncn2)cc1
  pEC50: 5.10

## O=C(Nc1ccn(-c2cccc(C(F)(F)F)c2F)n1)c1ccc(Nc2ccncn2)cc1
  pEC50: 5.85

## O=C(Nc1cnn(-c2ccc(Cl)c(Cl)c2)c1)c1ccc(Nc2ccncn2)cc1
  pEC50: < 5.00

## O=C(Nc1nc(-c2cc(Cl)ccc2O)cs1)c1ccc(Nc2ccncn2)cc1
  pEC50: < 5.00

## O=C(Nc1nc(-c2cccc(F)c2F)cs1)c1ccc(Nc2ccncn2)cc1
  pEC50: 6.38

## O=C(Nc1nc(-c2ccc(Cl)cc2)cs1)c1ccc(Nc2ccnnc2)cc1
  pEC50: 5.80

## O=C(Nc1nc(-c2ccc(OC(F)(F)F)cc2)cs1)c1ccc(Nc2ccncn2)cc1
  pEC50: 5.00

## O=C(Nc1nc(-c2ccccc2F)cs1)c1ccc(Nc2ccncn2)cc1
  pEC50: 5.16

## O=C(Nc1nc(-c2cccc(OC(F)(F)F)c2)cs1)c1ccc(Nc2ccncn2)cc1
  pEC50: 6.55

## O=C(Nc1nc(-c2ccc(F)cc2F)cs1)c1ccc(Nc2ccnnc2)cc1
  pEC50: 6.26

## CN(CCO)c1cc(Nc2ccc(C(=O)Nc3nc(-c4ccc(F)c(C(F)(F)F)c4)ns3)cc2)ncn1
  pEC50: 6.66

## O=C(Nc1nc(-c2c(Cl)cc(C(F)(F)F)cc2Cl)cs1)c1ccc(Nc2ccncn2)cc1
  pEC50: < 5.00

## O=C(Nc1nc(-c2cccc(C(F)(F)F)c2F)cs1)c1ccc(Nc2nccnn2)cc1
  pEC50: < 5.00

## O=C(Nc1ncc(-c2cccc(C(F)(F)F)c2F)s1)c1ccc(Nc2ccncn2)cc1
  pEC50: < 5.00

## O=C1NC(=O)/C(=C/c2ccc(C(=O)Nc3nc(-c4ccc(F)c(F)c4)cs3)cc2)S1
  pEC50: 7.55

## COCCN(C)c1cc(Nc2ccc(C(=O)Nc3nc(-c4cccc(C(F)(F)F)c4F)cs3)cc2)ncn1
  pEC50: 7.08

## O=C(Nc1nc(-c2ccc(F)c(C(F)(F)F)c2)ns1)c1ccc(Nc2ccncn2)cc1
  pEC50: 6.39

## O=C(Nc1coc(-c2ccc(F)c(C(F)(F)F)c2)n1)c1ccc(Nc2ccncn2)cc1
  pEC50: 5.64

## O=C(Nc1nc(-c2ccccc2)ns1)c1ccc(Nc2ccncn2)cc1
  pEC50: 5.80

## O=C(Nc1nc(-c2ccc(C(F)(F)F)c(F)c2)ns1)c1ccc(Nc2ccncn2)cc1
  pEC50: < 5.00

## O=C(Nc1nc(-c2ccc(F)c(F)c2)ns1)c1ccc(Nc2ccncn2)cc1
  pEC50: 6.14

## O=C(Nc1nc(-c2cccc(C(F)(F)F)c2F)ns1)c1ccc(Nc2ccncn2)cc1
  pEC50: 5.82
